Tested on: human keratinocytes (NHKs)
Assay: Lipofuscin autofluorescence in human keratinocytes under H2O2 oxidative stress, normalized to total protein
Format: cell-based
Settings: Keratinocyte, 48 h, 0.5 µg/ml oleuropein for 24 h before and 2 days after the stress, 1 mM H2O2 for 20 minutes, measured 2 days after oxidative stress, read-out: decrease of lipofuscin formation, as compared to untreated H2O2- exposed cells
Experimental: Because there is no specific lipofuscin antibody and its composition varies between different cell types, lipofuscin autofluorescence is the most widely used method for its detection and quantification. In order to evaluate the effect of oleuropein on lipofuscin formation in oxidatively stressed cells, lipofuscin accumulation was measured by autofluorescence, after induction of oxidative stress to human keratinocytes, treated or not with oleuropein.
After 24h incubation with oleuropein, the cells were treated with 1mM H2O2 for 20 minutes. After a recovery time of 2, 4 or 7 days, representative pictures of cells were taken and lipofuscin amount was quantified by autofluorescence measurement. […]
After 2, 4 and 7 days, respectively, representative pictures of the cells were taken, and lipofuscin autofluorescence was measured.
The total protein content was determined at each time-point for data normalization purposes. […]
The autofluorescence of lipofuscin was detected at wavenlengths of 570-605nm after an excitation at 366nm, using a fluorometer (Vistor2TM, PerkinElmer, Belgium).
For each condition tested, the quantity of autofluorescent lipofuscin was normalized to the amount of total proteins. […] The dosage of proteins was performed following the Bradford method, based on the detection of the absorbance of Coomassie Blue (Coomassie Protein Assay Kit, Pierce, USA). […]

C/C=C1/[C@H](O[C@@H]2O[C@H](CO)[C@@H](O)[C@H](O)[C@H]2O)OC=C(C(=O)OC)[C@H]1CC(=O)OCCc1ccc(O)c(O)c1 [oleuropein, Oleuropein]
inhibition at 0.5 µg/mL: 13%
